Data on 37 compounds can be found in patent US7998978B2 (Pfizer Inc., priority 2006, dated 2011).

Structures are written as SMILES.

The target in the first assay is T1, JNK1α1 (Homo sapiens, UniProt P45983).
T1 construct: catalytic domain containing amino acids 1-364 and N-terminal hexahistidine tag; hexahistidine (His6) (N); made in house; host or cells: E. coli BL21 (DE3)
T1 sequence (P45983 1-364): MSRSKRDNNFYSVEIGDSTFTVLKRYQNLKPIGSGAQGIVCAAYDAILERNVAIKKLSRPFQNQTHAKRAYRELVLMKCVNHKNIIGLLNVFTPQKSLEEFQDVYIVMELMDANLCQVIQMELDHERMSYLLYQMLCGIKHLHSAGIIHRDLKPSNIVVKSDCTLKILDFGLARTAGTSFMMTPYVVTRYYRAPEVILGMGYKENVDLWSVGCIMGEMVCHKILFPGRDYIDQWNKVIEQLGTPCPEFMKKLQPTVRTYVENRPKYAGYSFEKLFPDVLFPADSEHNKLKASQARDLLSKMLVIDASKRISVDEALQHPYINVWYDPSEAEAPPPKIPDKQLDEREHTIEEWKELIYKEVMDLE
As to the kind of experiment: Coupled spectrophotometric (PK/LDH) JNK1α1 assay: % inhibition and Ki determination. The assay is classed as biochemical. Conditions: @1 uM; read-out: % Inhibition JNK-1. The method in brief:
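Initial rates were taken from the absorbance decrease at 340 nm at 30° C. Ki was fitted with a tight-binding model over 11 concentrations (top 100 μM); single-point inhibition was tested at 1 or 10 μM.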
One may read the inhibition as the share of the control response that was lost under treatment. On to `C[C@@H]([C@H](Oc1ccc2cnc(N[C@H]3CC[C@H](O)CC3)nc2c1)c1ccccc1)N(C)C` [Example 296, trans-4-[(7-{[(1R,2S)-2-(dimethylamino)-1-phenylpropyl]oxy}quinazolin-2-yl)amino]cyclohexanol], for which the inhibition at 1 µM was determined as 14%.

For `Cc1noc(C(NC(=O)c2cccc3cnc(N[C@H]4CC[C@H](O)CC4)nc23)c2ccccc2)n1` (stereo partly drawn) [Example 527, 2-[(trans-4-hydroxycyclohexyl)amino]-N-[(3-methyl-1,2,4-oxadiazol-5-yl)(phenyl)methyl]quinazoline-8-carboxamide], the inhibition at 1 µM was determined as 34%.

Consider `CCN1CC(CNC(=O)c2cccc3cnc(N[C@H]4CC[C@H](O)CC4)nc23)CC1=O` (stereo partly drawn) [Example 508, N-[(1-ethyl-5-oxopyrrolidin-3-yl)methyl]-2-[(trans-4-hydroxycyclohexyl)amino]quinazoline-8-carboxamide], for which the inhibition at 1 µM is 21%.

As to `CC(NC(=O)c1cccc2cnc(N[C@H]3CC[C@H](O)CC3)nc12)c1ccncn1` (stereo partly drawn) [Example 492, 2-[(trans-4-hydroxycyclohexyl)amino]-N-(1-pyrimidin-4-ylethyl)quinazoline-8-carboxamide], the inhibition at 1 µM was found to be 12%.

`O=C(NCCn1cccn1)c1cccc2cnc(N[C@H]3CC[C@H](O)CC3)nc12` [Example 507, 2-[(trans-4-hydroxycyclohexyl)amino]-N-[2-(1H-pyrazol-1-yl)ethyl]quinazoline-8-carboxamide]: the inhibition at 1 µM came to 25%.

Turning to `O=C(NC[C@@H](O)c1ccccc1)c1cccc2cnc(N[C@H]3CC[C@H](O)CC3)nc12` [Example 474, 2-[(trans-4-hydroxycyclohexyl)amino]-N-[(2S)-2-hydroxy-2-phenylethyl]quinazoline-8-carboxamide], the inhibition at 1 µM was determined as 37%.

For the compound `Cc1noc(C)c1COc1ccc2cnc(N[C@H]3CC[C@H](O)CC3)nc2c1` [Example 295, trans-4-({7-[(3,5-dimethylisoxazol-4-yl)methoxy]quinazolin-2-yl}amino)cyclohexanol], the inhibition at 1 µM turned out to be 71%.

`O=C(N[C@H](CO)Cc1ccccc1)c1ccc2cnc(NC3CCC3)nc2c1` [Example 420, N-[(1S)-1-benzyl-2-hydroxyethyl]-2-(cyclobutylamino)quinazoline-7-carboxamide]: the inhibition at 1 µM came to 21%.

The assay is the same for the next values; noted with them: @10 uM; read-out: % Inhibition JNK-1.
On to `O=C(NCc1nnc(C2CC2)[nH]1)c1cccc2cnc(N[C@H]3CC[C@H](O)CC3)nc12` [Example 490, N-[(5-cyclopropyl-4H-1,2,4-triazol-3-yl)methyl]-2-[(trans-4-hydroxycyclohexyl)amino]quinazoline-8-carboxamide], for which the inhibition at 10 µM stood at 40%.

Regarding `C[C@@H](CO)NC(=O)c1ccc2cnc(NC3CCC3)nc2c1` [Example 437, 2-(cyclobutylamino)-N-[(1S)-2-hydroxy-1-methylethyl]quinazoline-7-carboxamide], the inhibition at 10 µM was found to be 57%.

For `Cc1noc(CCNC(=O)c2cccc3cnc(N[C@H]4CC[C@H](O)CC4)nc23)n1` [Example 523, 2-[(trans-4-hydroxycyclohexyl)amino]-N-[2-(3-methyl-1,2,4-oxadiazol-5-yl)ethyl]quinazoline-8-carboxamide], the inhibition at 10 µM worked out at 44%.

For the compound `Cc1cc(C)nc(NC(=O)c2cccc3cnc(N[C@H]4CC[C@H](O)CC4)nc23)n1` [Example 313, N-(4,6-dimethylpyrimidin-2-yl)-2-[(trans-4-hydroxycyclohexyl)amino]quinazoline-8-carboxamide], the inhibition at 10 µM stood at 71%.

As to `O=C(NCc1noc(-c2ccccc2)n1)c1cccc2cnc(N[C@H]3CC[C@H](O)CC3)nc12` [Example 501, 2-[(trans-4-hydroxycyclohexyl)amino]-N-[(5-phenyl-1,2,4-oxadiazol-3-yl)methyl]quinazoline-8-carboxamide], the inhibition at 10 µM was 60%.

The assay is the same for the next values; noted with them: JNK-1.
Broadly, the Ki is a dissociation constant, usually derived from enzyme kinetics or from competition with a known ligand. High values mean lower affinity, low ones higher affinity. The compound `O[C@H]1CC[C@H](Nc2ncc3ccc(O[C@H]4CCOC4)cc3n2)CC1` [Example 160, trans-4-({7-[(3S)-tetrahydrofuran-3-yloxy]quinazolin-2-yl}amino)cyclohexanol] showed a Ki of 70 nM.

In the case of `O[C@H]1CC[C@H](Nc2ncc3cccc(OCC4CCOC4)c3n2)CC1` (stereo partly drawn) [Example 249, trans-4-{[8-(tetrahydrofuran-3-ylmethoxy)quinazolin-2-yl]amino}cyclohexanol], the affinity corresponds to a Ki of 323 nM.

`CC[C@@H](CO)NC(=O)c1ccc2cnc(N[C@H]3CC[C@H](O)CC3)nc2c1` [Example 334, 2-[(trans-4-hydroxycyclohexyl)amino]-N-[(1S)-1-(hydroxymethyl)propyl]quinazoline-7-carboxamide] had an inhibition constant Ki of 480 nM.

Regarding `CC(C)(CO)NC(=O)c1ccc2cnc(NC3CCCCC3)nc2c1` [Example 413, 2-(cyclohexylamino)-N-(2-hydroxy-1,1-dimethylethyl)quinazoline-7-carboxamide], the affinity corresponds to a Ki of 1270 nM.

As to `COc1ccc2cnc(N[C@H]3CC[C@H](O)CC3)nc2c1` [Example 145, trans-4-[(7-methoxyquinazolin-2-yl)amino]cyclohexanol], the Ki was found to be 123 nM.

On to `O=C(NC1CCCOC1)c1ccc2cnc(N[C@H]3CC[C@H](O)CC3)nc2c1` (stereo partly drawn) [Example 353, 2-[(trans-4-hydroxycyclohexyl)amino]-N-(tetrahydro-2H-pyran-3-yl)quinazoline-7-carboxamide], for which the Ki came to 1170 nM.

In the case of `CC[C@H](C)[C@@H](CO)NC(=O)c1ccc2cnc(NC3CCCCC3)nc2c1` [Example 380, 2-(cyclohexylamino)-N-[(1S,2S)-1-(hydroxymethyl)-2-methylbutyl]quinazoline-7-carboxamide], the Ki came out at 187 nM.

For `O=C(CC1CCS(=O)(=O)C1)Nc1cc2cc(-c3cn[nH]c3)ccc2cn1` (stereo not shown) [Example 13, 2-(1,1-dioxidotetrahydro-3-thienyl)-N-[6-(1H-pyrazol-4-yl)isoquinolin-3-yl]acetamide], the Ki came out at 36 nM.

`O[C@H]1CC[C@H](Nc2ncc3ccc(F)cc3n2)CC1` [Example 143, trans-4-[(7-fluoroquinazolin-2-yl)amino]cyclohexanol] showed a Ki of 337 nM.

For `C[C@@H](NC(=O)c1ccc2cnc(N[C@H]3CC[C@H](O)CC3)nc2c1)c1ccccc1` [Example 87, 2-[(trans-4-hydroxycyclohexyl)amino]-N-[(1R)-1-phenylethyl]quinazoline-7-carboxamide], the Ki came to 60 nM.

Regarding `CC(=O)NC1CCC(Nc2cc3cc(-c4cn[nH]c4)ccc3cn2)CC1` (stereo not shown) [Example 217, N-(4-{[6-(1H-pyrazol-4-yl)isoquinolin-3-yl]amino}cyclohexyl)acetamide], the Ki came to 775 nM.

Compound `O[C@H]1CC[C@H](Nc2ncc3ccc(OC4CCOC4)cc3n2)CC1` (stereo partly drawn) [Example 144, trans-4-{[7-(tetrahydrofuran-3-yloxy)quinazolin-2-yl]amino}cyclohexanol] had a Ki of 127 nM. This Ki is about 6.1-fold lower than that of the compound before.

Turning to `O=C(NCc1ccc(F)cc1)c1ccc2cnc(N[C@H]3CC[C@H](O)CC3)nc2c1` [Example 88, N-(4-fluorobenzyl)-2-[(trans-4-hydroxycyclohexyl)amino]quinazoline-7-carboxamide], affinity was put at a Ki of 114 nM.

`O=C(CCc1cncnc1)Nc1cc2cc(-c3cn[nH]c3)ccc2cn1` [Example 29, N-[6-(1H-pyrazol-4-yl)isoquinolin-3-yl]-3-pyrimidin-5-ylpropanamide] returned a Ki of 22 nM.

Compound `CC(=O)OCC(C)(C)CC(=O)Nc1cc2cc(-c3cn[nH]c3)ccc2cn1` [Example 10, 2,2-dimethyl-4-oxo-4-{[6-(1H-pyrazol-4-yl)isoquinolin-3-yl]amino)butyl acetate] registered a Ki of 42 nM.

Compound `O=C(Cc1ccc2ccccc2c1)Nc1cc2cc(-c3cn[nH]c3)ccc2cn1` [Example 5, 2-(2-naphthyl)-N-[6-(1H-pyrazol-4-yl)isoquinolin-3-yl]acetamide] displayed a Ki of 79 nM.

As to `COc1ccccc1CC(=O)Nc1cc2cc(-c3cn[nH]c3)ccc2cn1` [Example 53, 2-(2-methoxyphenyl)-N-[6-(1H-pyrazol-4-yl)isoquinolin-3-yl]acetamide], the Ki worked out at 21 nM.

`COc1ccccc1C(CO)NC(=O)c1ccc2cnc(N[C@H]3CC[C@H](O)CC3)nc2c1` (stereo partly drawn) [Example 97, 2-[(trans-4-hydroxycyclohexyl)amino]-N-[2-hydroxy-1-(2-methoxyphenyl)ethyl]quinazoline-7-carboxamide]: the inhibition constant (Ki) amounted to 55 nM.

`CC(C)C[C@@H](CO)NC(=O)c1ccc2cnc(NC(C)C)nc2c1` [Example 391, N-[(1S)-1-(hydroxymethyl)-3-methylbutyl]-2-(isopropylamino)quinazoline-7-carboxamide] displayed a Ki of 365 nM.

Take `CCC[C@@H](CO)NC(=O)c1ccc2cnc(NC3CCCC3)nc2c1` [Example 387, 2-(cyclopentylamino)-N-[(1S)-1-(hydroxymethyl)butyl]quinazoline-7-carboxamide]: affinity was put at a Ki of 297 nM. The Ki values of the last two compounds are within 1.5-fold of each other.

In the case of `CC(C)[C@@H](CO)NC(=O)c1ccc2cnc(NC3CCCCC3)nc2c1` [Example 389, 2-(cyclohexylamino)-N-[(1S)-1-(hydroxymethyl)-2-methylpropyl]quinazoline-7-carboxamide], the affinity, expressed as Ki, was 318 nM.

For `COCCNC(=O)c1cccc2cnc(N[C@H]3CC[C@H](O)CC3)nc12` [Example 109, 2-[(trans-4-hydroxycyclohexyl)amino]-N-(2-methoxyethyl)quinazoline-8-carboxamide], the Ki was 678 nM.

Compound `O=C(NCC1(O)CCCC1)c1cccc2cnc(N[C@H]3CC[C@H](O)CC3)nc12` [Example 460, 2-[(trans-4-hydroxycyclohexyl)amino]-N-[(1-hydroxycyclopentyl)methyl]quinazoline-8-carboxamide] gave a Ki of 400 nM. This Ki lies about 1.7-fold lower than the previous one.

With `O=C(CN1Cc2ccccc2C1=O)Nc1cc2cc(-c3cn[nH]c3)ccc2cn1` [Example 25, 2-(1-oxo-1,3-dihydro-2H-isoindol-2-yl)-N-[6-(1H-pyrazol-4-yl)isoquinolin-3-yl]acetamide], the affinity, expressed as Ki, was 14 nM.
